# Experimental data reported in US20150031102A1, “METHODS AND COMPOSITIONS FOR ENHANCED PRODUCTION OF BUTANOL BY CLOSTRIDIA” (Butrolix LLC, priority 2012, published 2015).
# Marks after values point to notes of the source that are not given here.
# Tested on: C. acetobutylicum
# Assay: Continuous culture, 2.5 L, dilution rate 0.01 per hour, 20 days (butanol, residual glucose, optical density, pH, yield, productivity)
# Type: cell-based, Clostridium acetobutylicum
# Settings: for Optical density (600 nm): 50 nM BP110517 and its control; for Productivity / Yield / Butanol: 50 nM peptide, Table 53; for Butanol: average ± SD of triplicate samples; for Average Butanol / Average Glucose: Treated (50 nM)
# Description: Lastly, 2.5 L continuous culture studies were conducted using the optimum peptide treatment level that was determined by the sequential batch transfer experiments. An untreated and a peptide-treated culture were grown in parallel, identical vessels with identical dilution rates for 20 days. The continuous cultures were initiated by inoculating 2.25 L of sterile medium in each culture vessel using 250 mL of peptide-treated and untreated batch cultures that had been grown for 24 hours. The batch cultures used as inoculum were the third of sequential batch transfer cultures, which made inoculation of the continuous cultures the fourth sequential transfer. After inoculation, the continuous cultures were grown for 24 hours before beginning to feed fresh medium at a rate of 0.01 volumes per hour. Triplicate samples were taken from each continuous culture every 24 hours. Optical density of the replicates was measured and culture supernatants were recovered following centrifugation and analyzed later for butanol and residual glucose concentrations. The analyses were used to calculate yield and productivity of the cultures.
# Clostridium acetobutylicum strain ATCC 824 was used in all experiments and the growth medium used for sequential batch transfer, time course, and continuous culture experiments contained yeast extract, casamino acids, L-cysteine, L-asparagine, phosphate buffer, trace minerals, and 6% glucose. What are believed to be quorum-sensing peptides that were used in the experiments were chemically synthesized peptides SEQ ID NO: 143 (amino acid sequence: SYPGWSW) and SEQ ID NO: 144 (amino acid sequence: ILILISG). Routine growth of the bacteria as well as the sequential batch and time course experiments were conducted in a Form a Scientific Model 1029 anaerobic gas chamber at 32° C. Continuous cultures were performed at 32° C. using duplicate New Brunswick Scientific BioFlo 3000 apparati with a dilution rate of 0.01 volume per hour, 75 rpm agitation, and nitrogen gas sparging. Optical density of culture samples was measured at 600 nm in a Beckman DU 600 series spectrophotometer and glucose was analyzed using a YSI Model 2700 Select Biochemistry Analyzer with internal glucose calibration. Butanol concentrations were determined by measuring experimental and standard samples using a Varian Saturn 3 Gas Chromatograph/Mass Spectrometer and calculating butanol concentrations using standard curves.
# Data from continuous cultures using a 6% glucose medium in vessels with a working volume of 2.5 L run at a dilution rate of 0.01 per hour. Two vessels were run in parallel, one of which was treated with 50 nM of peptide SEQ ID NO: 143 and the other was untreated. The vessels were sparged continuously with nitrogen gas to maintain anaerobic conditions and were agitated at 75 rpm. On Day 0, the vessels were inoculated with a 1/10 volume (250 mL) of overnight cultures that were either treated with peptide or untreated, and that were the third transfer of the cultures, which made inoculation of the continuous cultures the fourth transfer. Triplicate samples were collected aseptically from each vessel immediately after inoculation and every 24 hours thereafter. The cultures were allowed to grow for 24 hours prior to beginning to feed fresh medium, and were maintained for 20 days each, without pH control. The optical density of each sample was measured immediately at 600 nm, the samples were centrifuged to remove cells, and the cell-free supernatants were frozen for later analysis. A representative experiment is shown in FIG. 19 and Tables 34 and 35.
# Using the optimum peptide treatment level that was determined by the sequential batch transfer experiments, 2.5 L continuous culture studies were conducted. An untreated and a peptide-treated culture were grown in parallel, identical vessels using the same dilution rates for 20 days for each of the peptides BP110517 and BP1106213. […]
# [1] = 50 nM BP110517, last five days of culture
# [2] = 24 hour period preceding day 10
# [3] = 24 hour period preceding day 11
# [4] = 24 hour period preceding day 12
# [5] = 24 hour period preceding day 13
# [6] = 24 hour period preceding day 14
# [7] = 24 hour period preceding day 15
# [8] = 24 hour period preceding day 16
# [9] = 24 hour period preceding day 17
# [10] = 24 hour period preceding day 18
# [11] = 24 hour period preceding day 19
# [12] = 24 hour period preceding day 20
substance,measurement,setting,value
SYPGWSW [peptide SEQ ID NO: 143],Butanol content compared with the control,"50 nM BP110517, between days 5 and 9",significantly more butanol than the control
same,Butanol content compared with the control,[1],significantly greater than the control
same,Butanol level lower than earlier in the culture period,[1],roughly 75%
same,Optical density (600 nm),"after day 13, recovered after day 17",less than 0.500
same,Optical density (600 nm),first 9 days,around 2.0
same,Productivity,24 hour period preceding day 1,0.53 g Butanol/L-h
same,Yield,24 hour period preceding day 1,0.19 g Butanol/g Glucose
same,Productivity,24 hour period preceding day 2,−0.17 g Butanol/L-h
same,Yield,24 hour period preceding day 2,−0.28 g Butanol/g Glucose
same,Productivity,24 hour period preceding day 3,0.07 g Butanol/L-h
same,Yield,24 hour period preceding day 3,0.11 g Butanol/g Glucose
same,Productivity,24 hour period preceding day 4,0.29 g Butanol/L-h
same,Yield,24 hour period preceding day 4,0.46 g Butanol/g Glucose
same,Productivity,24 hour period preceding day 5,0.24 g Butanol/L-h
same,Yield,24 hour period preceding day 5,0.39 g Butanol/g Glucose
same,Productivity,24 hour period preceding day 6,0.07 g Butanol/L-h
same,Yield,24 hour period preceding day 6,0.11 g Butanol/g Glucose
same,Productivity,24 hour period preceding day 7,0.14 g Butanol/L-h
same,Yield,24 hour period preceding day 7,0.23 g Butanol/g Glucose
same,Productivity,24 hour period preceding day 8,0.06 g Butanol/L-h
same,Yield,24 hour period preceding day 8,0.10 g Butanol/g Glucose
same,Productivity,24 hour period preceding day 9,0.07 g Butanol/L-h
same,Yield,24 hour period preceding day 9,0.11 g Butanol/g Glucose
same,Productivity,[2],0.00 g Butanol/L-h
same,Yield,[2],0.01 g Butanol/g Glucose
same,Productivity,[3],0.20 g Butanol/L-h
same,Yield,[3],0.33 g Butanol/g Glucose
same,Productivity,[4],0.02 g Butanol/L-h
same,Yield,[4],0.04 g Butanol/g Glucose
same,Productivity,[5],−0.11 g Butanol/L-h
same,Yield,[5],−0.18 g Butanol/g Glucose
same,Productivity,[6],0.00 g Butanol/L-h
same,Yield,[6],0.00 g Butanol/g Glucose
same,Productivity,[7],0.03 g Butanol/L-h
same,Yield,[7],0.05 g Butanol/g Glucose
same,Productivity,[8],0.11 g Butanol/L-h
same,Yield,[8],0.17 g Butanol/g Glucose
same,Productivity,[9],−0.01 g Butanol/L-h
same,Yield,[9],−0.02 g Butanol/g Glucose
same,Productivity,[10],0.01 g Butanol/L-h
same,Yield,[10],0.01 g Butanol/g Glucose
same,Productivity,[11],0.06 g Butanol/L-h
same,Yield,[11],0.09 g Butanol/g Glucose
same,Productivity,[12],0.01 g Butanol/L-h
same,Yield,[12],0.01 g Butanol/g Glucose
same,Butanol,day 0,0.9 ± 0.0 g/L
same,Butanol,day 1,12.8 ± 4.4 g/L
same,Butanol,day 2,5.5 ± 0.7 g/L
same,Butanol,day 3,5.8 ± 1.7 g/L
same,Butanol,day 4,11.2 ± 5.3 g/L
same,Butanol,day 5,14.2 ± 0.3^c g/L
same,Butanol,day 6,12.3 ± 0.6^c g/L
same,Butanol,day 7,12.6 ± 0.0^c g/L
same,Butanol,day 8,11.0 ± 0.4 g/L
same,Butanol,day 9,9.9 ± 0.3^c g/L
same,Butanol,day 10,7.6 ± 0.3 g/L
same,Butanol,day 11,10.6 ± 0.7 g/L
same,Butanol,day 12,8.5 ± 2.8 g/L
same,Butanol,day 13,3.6 ± 0.2 g/L
same,Butanol,day 14,2.7 ± 0.4 g/L
same,Butanol,day 15,2.8 ± 0.6 g/L
same,Butanol,day 16,4.7 ± 0.1^c g/L
same,Butanol,day 17,3.3 ± 0.2^c g/L
same,Butanol,day 18,2.7 ± 0.0^c g/L
same,Butanol,day 19,3.4 ± 0.1^c g/L
same,Butanol,day 20,2.7 ± 0.2^c g/L
same,Effect on butanol yield and productivity,"BP110517, continuous cultures (summary of findings)",increased butanol yield and productivity
same,Average Butanol,day 0,0.91 g/L
same,Average Glucose,day 0,66.1 g/L
same,Average Butanol,day 1,12.81 g/L
same,Average Glucose,day 1,28.2 g/L
same,Average Butanol,day 2,5.54 g/L
same,Average Glucose,day 2,3.3 g/L
same,Average Butanol,day 3,5.78 g/L
same,Average Glucose,day 3,3.1 g/L
same,Average Butanol,day 4,11.22 g/L
same,Average Glucose,day 4,2.4 g/L
same,Average Butanol,day 5,14.19 g/L
same,Average Glucose,day 5,0.0 g/L
same,Average Butanol,day 6,12.27 g/L
same,Average Glucose,day 6,0.0 g/L
same,Average Butanol,day 7,12.64 g/L
same,Average Glucose,day 7,0.4 g/L
same,Average Butanol,day 8,10.95 g/L
same,Average Glucose,day 8,0.0 g/L
same,Average Butanol,day 9,9.89 g/L
same,Average Glucose,day 9,2.3 g/L
same,Average Butanol,day 10,7.55 g/L
same,Average Glucose,day 10,13.4 g/L
same,Average Butanol,day 11,10.55 g/L
same,Average Glucose,day 11,6.1 g/L
same,Average Butanol,day 12,8.46 g/L
same,Average Glucose,day 12,0.0 g/L
same,Average Butanol,day 13,3.63 g/L
same,Average Glucose,day 13,2.0 g/L
same,Average Butanol,day 14,2.73 g/L
same,Average Glucose,day 14,14.2 g/L
same,Average Butanol,day 15,2.82 g/L
same,Average Glucose,day 15,23.8 g/L
same,Average Butanol,day 16,4.71 g/L
same,Average Glucose,day 16,29.2 g/L
same,Average Butanol,day 17,3.32 g/L
same,Average Glucose,day 17,30.4 g/L
same,Average Butanol,day 18,2.68 g/L
same,Average Glucose,day 18,40.1 g/L
same,Average Butanol,day 19,3.41 g/L
same,Average Glucose,day 19,33.8 g/L
same,Average Butanol,day 20,2.69 g/L
same,Average Glucose,day 20,40.3 g/L
